From ChEMBL document CHEMBL5236622, “Krasilnikolides A and B and Detalosylkrasilnikolide A, Cytotoxic 20-Membered Macrolides from the Genus Krasilnikovia: Assignment of Anomeric Configuration by J-Based Configuration Analysis” (J Nat Prod, 2022)
In brackets after ≈: the same amount, converted by molar mass.

Assays:
Staphylococcus aureus = test: Antibacterial activity against Staphylococcus aureus FDA209P JC-1 assessed as inhibition of bacterial growth incubated for 20 hrs by liquid microculture method; assay type: functional
Kocuria rhizophila = test: Antibacterial activity against Kocuria rhizophila ATCC9341 assessed as inhibition of bacterial growth incubated for 20 hrs by liquid microculture method; assay type: functional
P388 = test: Cytotoxicity against mouse P388 cells assessed as inhibition of cell growth incubated for 48 hrs by MTT assay; assay type: functional, cell-based; conditions: P388, 48 h

Row | MIC (Staphylococcus aureus) [µg/mL] | MIC (Kocuria rhizophila) [µg/mL] | SMILES | IC50 (P388) [µM]
1 | 50 (≈ 78.8 µM) | 25 (≈ 39.4 µM) | C/C=C(\C)[C@H]1OC(=O)[C@H](C)[C@@H](O[C@@H]2O[C@@H](C)[C@@H](O)[C@@H](O)[C@H]2O)/C(C)=C/C=C/[C@H](C)C/C(C)=C/[C@@H](C)[C@H](O)C[C@@H](O)/C(C)=C/[C@H]1C | 13.9
2 |  | 25 (≈ 51.2 µM) | C/C=C(\C)[C@H]1OC(=O)[C@H](C)[C@@H](O)/C(C)=C/C=C/[C@H](C)C/C(C)=C/[C@@H](C)[C@H](O)C[C@@H](O)/C(C)=C/[C@H]1C | 3.9
3 |  | 25 (≈ 38.5 µM) | C/C=C(\CC)[C@H]1OC(=O)[C@H](C)[C@@H](O[C@@H]2O[C@@H](C)[C@@H](O)[C@@H](O)[C@H]2O)/C(C)=C/C=C/[C@H](C)C/C(C)=C/[C@@H](C)[C@H](O)C[C@@H](O)/C(C)=C/[C@H]1C | 8.4
